These results are taken from patent US7615377B2, “Fluorescein-based metal sensors” (Massachusetts Institute of Technology, priority 2003, dated 2009).

Where two headings read alike, the source gives them in different places.

Data set [1] in a line: Fluorescence response of sensor to Hg^2+ (fluorescence spectroscopy, integrated emission). It is filed as binding. On the procedure: General Spectroscopic Procedures. Ultrol grade PIPES (piperazine-N,N′-bis(2-ethanesulfonic acid) from Calbiochem, KCl (99.997%) and anhydrous HgCl2 (99.998%) were purchased and used as received. Millipore filtered water was used to prepare all aqueous solutions. With the exception of the pKa determination, all spectroscopic measurements were conducted at neutral pH with 50 mM PIPES, 100 mM KCl buffer adjusted to pH 7. An Orion glass electrode, calibrated prior to use, was employed to record solution pH. Mercury solutions were prepared from 10 mM stock solutions of HgCl2. Stock solutions of MS1 (1 mM in DMSO) was prepared, stored at −4° C., and thawed in the dark immediately prior to use. After addition of this stock solution to aqueous buffers, the resulting solution contained 0.1% DMSO for fluorescence and 1% DMSO for absorption measurements. The KaleidaGraph software package was used to manipulate all spectral data.
Fluorescence Spectroscopy. Emission spectra were obtained with a Hitachi F-3010 spectrofluorimeter linked to a Pentium PC running the SpectraCalc software package. A rhodamine quantum counter was used to normalize the spectra for excitation intensity, and manufacturer-supplied correction curves were used to normalize the emission spectra. Manufacturer supplied photomultiplier curves were used to correct for emission intensity. A circulating water bath was used during all experiments to regulate the temperature at 25.0° C.±0.1° C. Spectra were obtained with 3 nm slit widths and either a 240 nm/min or 600 nm/min scan speed. All measurements were conducted at least in triplicate.

The nature of data set [2]: Selectivity of mercury-induced fluorescence in the presence of other metal ions. The data set is classed as binding. As to conditions: for fluorescence increase upon addition of Hg^2+: 1 μM probe, excitation 500 nm. As to the method: Selectivity of Mercury-Induced Fluorescence in the Presence of Other Metal Ions. The selectivity of MS1 for Hg^2+ against a background of various alkali, alkaline earth, transition metal ions, and Zn(II), Cd(II) or Pb(II) was investigated by using fluorescence spectroscopy. Aqueous metal ion solutions of Li(I), Na(I), Rb(I), Mg(II), Ca(II), Sr(II), Ba(II), Mn(II), Co(II), Ni(II), Cd(II), and Hg^2+ were prepared from the chloride salts. The Cu(II) solution was prepared from copper sulfate and the Pb(II) was prepared from lead nitrate. A solution of Cr(III) was prepared from chromium acetate and stored at pH 1. Solutions of Fe(II) were prepared immediately before use with ferrous ammonium sulfate and water that was thoroughly purged with Ar. All stock solutions were ˜10 mM, with the exception of 100 mM NaCl. In a typical experiment, the emission spectrum of the free dye was recorded. A 20 μL aliquot of a ˜10 mM metal solution was then added to a 1 μM solution of MS1 (3 mL, for a concentration of metal ion at about 1 to about 50 ppm, depending on the molecular weight of the metal ion tested) and the emission spectrum was recorded with excitation at 500 nm. Subsequently, a 20 μL portion of 10 mM HgCl2 was added and the emission spectrum was obtained. The spectra were integrated from 510-650 nm and normalized with respect to the free dye.

Data set [3] can be described thus: Determination of protonation constants (fluorescence dependence on pH). As to conditions: 10 mM KOH, 1 μM probe; for pKa, formation of a non-fluorescent isomer / pKa, protonation of the tertiary amine: 100 mM KCl, pH ~12 to ~3; for pKa: aqueous solution of 100 mM KCl. It is filed as physicochemical. As to the method:
Determination of Protonation Constants. The pKa values for MS1 affect fluorescence were determined by plotting the integrated emission intensity versus pH from ˜12 to ˜4. In a typical experiment, a 30 mL solution of 1 μM MS1 in 100 mM KCl, 10 mM KOH was prepared (pH ˜12). Aliquots of 6 N, 2 N, 1 N, 0.5 N, and 0.5 N HCl were added to achieve pH changes of approximately […], and the emission spectrum was recorded after each addition. […] Upon excitation at 500 nm, the emission spectra were integrated over the range 510 nm to 650 nm, normalized and plotted against pH. The data were fit to the non-linear expression previously described.

A short description of data set [4]: Reversibility of Hg^2+ binding upon addition of TPEN.
Data set [5] can be described thus: Quantum yield and extinction coefficient measurements (reference fluorescein in 0.1 N NaOH). It is filed as physicochemical. From the text:
Quantum yield, Φ, may be obtained by comparison of the integrated area of the corrected emission spectrum of the sample with that of a reference solution. A preferred reference solution is a solution of fluorescein in 0.1 N NaOH, quantum efficiency 0.95. The concentration of the reference is adjusted to match the absorbance, Abs, of the test sample. The quantum yields may be calculated using the following equation: […]
Optical Absorption Spectroscopy. UV-visible spectra were obtained by using either a Cary IE scanning spectrophotometer or a Hewlet Packard diode array spectrophotometer. Both instruments were controlled by Pentium PCs and were run using the manufacturer supplied software packages. A circulating water bath was used during acquisition to maintain the temperature at 25.0° C.±1.0° C. Samples were contained in 1-cm path length quartz cuvettes (3.5 mL volume). All manipulations were performed at least three times.
Quantum Yield Measurements. The quantum yield of MS1 was determined by comparison to fluorescein in 0.1 N NaOH (φ=0.95) as a reference. In a typical experiment, a 6 mL solution of ˜1 μM MS1 was prepared. For metal-free studies, 10 μL of 100 mM K4EDTA was added to chelate any adventitious metal ions. To determine the quantum efficiencies of the metal-bound dye, 10 μL of a 10 mM HgCl2 solution was added to a 1 μM MS1 solution. The concentration of the reference solution was adjusted such that Amax (490 nm) equaled Amax of MS1 (505 nm) or Amax of the Hg^2+ complex (501 nm), and the excitation wavelength was chosen as the wavelength determined from where the reference and probe excitation spectra intersect. Excitation was at 497 nm for MS1 and at 496 nm for the Hg^2+ complex. Emission spectra were integrated from 510-650 nm and the quantum yields were calculated standard methods.

A short description of data set [6]: Water solubility of the probe. The data set is classed as physicochemical.
The mark [7] stands for this setting: pH 7, metal-free, at absorption maximum (497 nm sensor 1; 505 nm MS1).
Where [8] appears, read: pH 7, with Hg^2+, at absorption maximum (500 nm sensor 1; 501 nm MS1).

Consider `CCSCCN(CCSCC)Cc1c2oc3c(CN(CCSCC)CCSCC)c(O)c(Cl)cc3c(-c3ccccc3C(=O)O)c-2cc(Cl)c1=O` [sensor 7], for which the “fluorescence change upon Hg^2+ coordination” value in data set [1] was “fluorescence decrease”.
Consider `CCSCCSCCN(CCSCCSCC)Cc1ccccc1NCc1c(O)ccc2c(-c3ccccc3C(=O)O)c3cc(Cl)c(=O)cc-3oc12` [sensor 6], for which the “fluorescence change upon Hg^2+ coordination” value in data set [1] is listed as “fluorescence decrease”.
As for `O=C(O)c1ccccc1-c1c2cc(Cl)c(=O)cc-2oc2c(CNc3ccccc3CN(CCS)Cc3ccccn3)c(O)ccc12` [sensor 4], the “fluorescence response upon addition of Hg^2+” value in data set [1] (crude reaction mixture from the synthesis, in the presence of chloride ion) is reported as “positive fluorescence response”.
Consider `CC(C)(S)CN(Cc1ccccn1)Cc1c(O)ccc2c(-c3ccccc3C(=O)O)c3cc(Cl)c(=O)cc-3oc12` [sensor 2], for which the “selectivity of fluorescence increase for Hg^2+ over other cations” value (“selectivity of fluorescence increase” for short) in data set [2] (pH 7) and in data set [2] (pH 11) was “selective for Hg^2+” in each case. Further, the “fluorescence increase upon addition of Hg^2+” value in data set [2] (pH 7 (50 mM PIPES, 100 mM KCl)) came to 1.5 fold; in data set [2] (pH 11 (50 mM CABS, 100 mM KCl)), 6 fold. Moreover, the “pKa, formation of a non-fluorescent isomer” value in data set [3] came to 4.7. For the same compound, the “pKa, protonation of the tertiary amine” value in data set [3] worked out at 8.0.
As usually defined, the pKa is the negative logarithm of the acid dissociation constant. `CCSCCN(CCSCC)Cc1ccccc1NCc1c(O)ccc2c(-c3ccccc3C(=O)O)c3cc(Cl)c(=O)cc-3oc12` [sensor 3, 2-{5-[(2-{[Bis-(2-ethylsulfanyl-ethyl)-amino]-methyl}-phenylamino)-methyl]-2-chloro-6-hydroxy-3-oxo-3H-xanthen-9-yl}-benzoic acid]: the “Hg response in a background of alkali and alkaline earth metals” value in data set [2] (Li(I), Na(I), Rb(I), Mg(II), Ca(II), Sr(II), Ba(II)) is recorded as “unaffected”. Also, the “effect of Zn(II), Cd(II), Cr(III), Pb(II) on fluorescence response to Hg^2+” value in data set [2] (Zn(II), Cd(II), Cr(III), Pb(II) background) was “do not inhibit”. Further, the “interference of first-row transition metal ions with Hg^2+-induced fluorescence increase” value in data set [2] (first-row transition metal ions) was “only Cu(II) interferes”. For the same compound, the “selectivity of fluorescence increase” value in data set [2] (pH 7) is “selective for Hg^2+”. The EC50 in data set [1] (500 nM probe, pH 7, read-out: EC50 (concentration of Hg^2+ required to achieve 50% of maximum fluorescence)) was found to be 410 nM. Moreover, the “increase in integrated emission upon addition of Hg^2+” value in data set [1] (pH 7 (50 mM PIPES, 100 mM KCl)) is reported as around 7 fold. Moreover, in data set [1] (pH 7 (50 mM PIPES, 100 mM KCl), listed as MS1), the “increase in integrated emission upon addition of Hg^2+” value is reported as around 5 fold. Also, the “reversibility of Hg^2+ binding” value in data set [4] is reported as “reversibly”. Further, the “normalized integrated emission versus cycle number, Hg^2+/TPEN cycles” value in data set [4] (1 μM sensor, 1 equiv Hg^2+ and 1 equiv TPEN alternately, excitation 500 nm) is “restoration and decrease of fluorescence upon addition of 1 equiv Hg^2+ and 1 equiv TPEN, respectively, over the course of five cycles”. Moreover, the “fluorescence after TPEN addition, distance from the background value” in data set [4] (1 equivalent TPEN added to stoichiometric mixture of sensor and Hg^2+) is listed as at most 20%. In data set [5] (pH 7), the “absorption maximum, free sensor” value was 505 nm; the “increase in brightness upon Hg^2+ binding” value is given as around 3.3 fold; the “increase in quantum yield upon Hg^2+ coordination” value is on record as around 2.75 fold. In addition, the “emission maximum, free sensor” value in data set [5] (pH 7, 50 mM PIPES, 100 mM KCl, EDTA present) is 524 nm. Also, the “quantum yield, free sensor” value in data set [5] (pH 7, metal-free) came to 0.04. The “extinction coefficient (epsilon), free sensor” value in data set [5] (setting [7]) was 61,400 M^−1 cm^−1. Moreover, the “extinction coefficient (epsilon), free sensor” value in data set [5] (pH 7, metal-free, at absorption maximum (497 nm sensor 1; 505 nm MS1), listed as MS1) was 61,300 M^−1 cm^−1. Also, in data set [5] (pH 7, with Hg^2+), the “absorption maximum, Hg^2+-bound” value came out at 501 nm; the “emission maximum, Hg^2+-bound” value was 528 nm; the “quantum yield, Hg^2+-bound” value came out at 0.11. Besides, the “extinction coefficient (epsilon), Hg^2+-bound” value in data set [5] (setting [8]) is reported as 73,200 M^−1 cm^−1. Also, the water solubility entry in data set [6] is “water-soluble”. For the same compound, the pKa in data set [3] (pH ~12 to ~3, read-out: pKa, formation of a non-fluorescent isomer) is 4.8. For the same compound, the pKa in data set [3] (pH ~12 to ~3, read-out: pKa, protonation of the aniline nitrogen atom) worked out at 7.1.
As for `O=C(O)c1ccccc1-c1c2cc(Cl)c(=O)cc-2oc2c(CN(CCS)Cc3ccccn3)c(O)ccc12` [sensor 1], the “selectivity of fluorescence increase” value in data set [2] (pH 7) and in data set [2] (pH 11) was “selective for Hg^2+” in each case. The “fluorescence increase upon addition of Hg^2+” value is 1.5 fold in data set [2] (pH 7 (50 mM PIPES, 100 mM KCl)); around 2.5 fold in data set [2] (pH 7 (50 mM PIPES, 100 mM KCl), listed as Sensor 1); 5 fold in data set [2] (pH 11 (50 mM CABS, 100 mM KCl)). Moreover, the “increase in integrated emission upon addition of Hg^2+” value in data set [1] (pH 11 (50 mM CABS, 100 mM KCl), 0-3 equivalents Hg^2+, excitation 504 nm) is around 6 fold. For the same compound, the “quantum yield, free sensor” value in data set [5] (pH 7, metal-free) worked out at 0.27; in data set [5] (pH 11, metal-free), 0.07. Also, the “extinction coefficient (epsilon), free sensor” value in data set [5] (setting [7]) is on record as 61,600 M^−1 cm^−1; in data set [5] (pH 11, metal-free, 504 nm) it was 60,800 M^−1 cm^−1. Further, the “quantum yield, Hg^2+-bound” value in data set [5] (pH 7, with Hg^2+) was found to be 0.27; in data set [5] (pH 11, with Hg^2+) it was 0.24. For the same compound, the “extinction coefficient (epsilon), Hg^2+-bound” value in data set [5] (setting [8]) is recorded as 69,000 M^−1 cm^−1; in data set [5] (pH 11, with Hg^2+, 507 nm), 78,300 M^−1 cm^−1. In addition, in data set [3], the “pKa, formation of a non-fluorescent isomer” value is 4.6. Moreover, the “pKa, protonation of the tertiary amine” value in data set [3] was determined as 8.2.
